Measurements published in patent US20220332764A1, “T CELL EPITOPES OF HCMV AND USES OF THEREOF” (EBERHARD KARLS UNIVERSITÄT TÜBINGEN, priority 2019, published 2022).
Several values for one entry are separate records, joined by “and”; a condition that tells them apart may be missing. Identical values can stand only once. Like-named read-outs stand apart in the source and are kept apart here.

Key:
[1] = test system: CD8+ / CD4+ T cells of donor PBMCs; assay: Intracellular cytokine staining (ICS; IFNγ, TNFα, CD107a); assay type: cell-based, human; settings: for Intracellular staining: responding T-cell subset; for Intracellular cytokine staining: responding T-cell subset after peptide stimulation
From the text: PHA was used as positive control. […] (Cytofix/Cytoperm, BD Biosciences).

[2] = test system: CD8+ T cells of HLA-matched healthy donors; settings: for Tetramer-staining: after 12 day amplification
[3] = test system: PBMCs of healthy HCMV-seropositive donors; assay: ex vivo IFNγ ELISpot without prestimulation; assay type: cell-based, human; settings: for % Positive donors (ex vivo): IFNγ ELISpot ex vivo, donors previously tested positive; for ELISpot response rate (ex vivo): donors positively tested in ELISpots with 12d stimulation
From the text: (§1) PHA was used as positive control.

[4] = test system: PBMCs of healthy HCMV-seropositive donors; assay: IFNγ ELISpot after 12 day stimulation (memory T-cell response); assay type: cell-based, human; settings: for % Positive donors (after 12 days of stimulation): IFNγ ELISpot, HLA-matched seropositive donors; for ELISpot response rate (12 d stim.): 12-day amplification with IL-2 in vitro; for Positive donors as tested: positive / tested HLA-matched seropositive donors, positive: >10 spots/well and at least 3-fold negative control; for Binding to more than one HLA-I allotype: stimulated T cells of different donors harboring either of two well predicted alleles
From the text: as §1

| Sequence | Intracellular cytokine staining [1] | Tetramer-staining [2] | % Positive donors (ex vivo) [3] | % Positive donors (after 12 days of stimulation) [4] | Positive donors as tested [4] | other results |
| --- | --- | --- | --- | --- | --- | --- |
| TLIVNLVEV (listed as Human cytomegalovirus) [SEQ ID NO: 3] | CD8 | Positive | 25.0% | 55.0% | 11/20 | Intracellular staining ([1]; Tested HLA A*02:01): CD8; Tetramer staining ([2]; Tested HLA A*02:01): positive; ELISpot response rate (ex vivo) ([3]; Tested HLA A*02:01): 25.0; ELISpot response rate (12 d stim.) ([4]; Tested HLA A*02:01): 55.0 |
| KLGYRPHAK (listed as Human cytomegalovirus) [SEQ ID NO: 71] | CD8 | Positive | – | 37.9% | 11/29 | – |
| RPFPSTHQL (listed as Human cytomegalovirus) [SEQ ID NO: 31] | – | – | 0.0% | 30.8% | 4/13 | – |
| LPHERHREL (listed as Human cytomegalovirus) [SEQ ID NO: 100] | CD8 | positive | 85.7% | – | 20/22 and 3/12 | Intracellular staining ([1]; Tested HLA B*08:01): CD8; Tetramer staining ([2]; Tested HLA B*08:01): positive; ELISpot response rate (ex vivo) ([3]; Tested HLA B*08:01): 85.7; ELISpot response rate (12 d stim.) ([4]; Tested HLA B*08:01): 90.9; Binding to more than one HLA-I allotype [4]: potentially able to bind to more than one HLA-I allotype |
| SLDRFIVQY (listed as Human cytomegalovirus) [SEQ ID NO: 57] | CD4 | – | – | 35.7% | 5/14 | – |
| RVKNRPIYR (listed as Human cytomegalovirus) [SEQ ID NO: 68] | CD8 | Positive | 33.3% | 60.9% | 14/23 | Intracellular staining ([1]; Tested HLA A*03:01): CD8; Tetramer staining ([2]; Tested HLA A*03:01): positive; ELISpot response rate (ex vivo) ([3]; Tested HLA A*03:01): 33.3; ELISpot response rate (12 d stim.) ([4]; Tested HLA A*03:01): 60.9 |
| SENGNLQVTY (listed as Human cytomegalovirus) [SEQ ID NO: 40] | CD8 | Positive | 62.5% | 83.9% | 26/31 | Intracellular staining ([1]; Tested HLA B*44:02): CD8; Tetramer staining ([2]; Tested HLA B*44:02): positive; ELISpot response rate (ex vivo) ([3]; Tested HLA B*44:02): 62.5; ELISpot response rate (12 d stim.) ([4]; Tested HLA B*44:02): 83.9 |
| YPRPPGSGL (listed as Human cytomegalovirus) [SEQ ID NO: 24] | Nega- | Positive | 25.0% | 86.4% | 19/22 | Tetramer staining ([2]; Tested HLA B*07:02): positive; ELISpot response rate (ex vivo) ([3]; Tested HLA B*07:02): 25.0; ELISpot response rate (12 d stim.) ([4]; Tested HLA B*07:02): 86.4 |
| GLYTQPRWK (listed as Human cytomegalovirus) [SEQ ID NO: 67] | CD8 | Positive | 50.0% | 76.2% | 16/21 | Intracellular staining ([1]; Tested HLA A*03:01): CD8; Tetramer staining ([2]; Tested HLA A*03:01): positive; ELISpot response rate (ex vivo) ([3]; Tested HLA A*03:01): 50.0; ELISpot response rate (12 d stim.) ([4]; Tested HLA A*03:01): 76.2 |
| YLVRRPMTI (listed as Human cytomegalovirus) [SEQ ID NO: 80] | Nega- | Positive | 33.3% | 50.0% | 11/22 | Tetramer staining ([2]; Tested HLA B*08:01): positive; ELISpot response rate (ex vivo) ([3]; Tested HLA B*08:01): 33.3; ELISpot response rate (12 d stim.) ([4]; Tested HLA B*08:01): 50.0 |
| GLLAHIPALGV (listed as Human cytomegalovirus) [SEQ ID NO: 8] | – | – | 0.0% | 27.3% | 6/22 | – |
| GVLDAVWRV (listed as Human cytomegalovirus) [SEQ ID NO: 1] | CD8 | Positive | 50.0% | 72.2% | 13/18 | Intracellular staining ([1]; Tested HLA A*02:01): CD8; Tetramer staining ([2]; Tested HLA A*02:01): positive; ELISpot response rate (ex vivo) ([3]; Tested HLA A*02:01): 50.0; ELISpot response rate (12 d stim.) ([4]; Tested HLA A*02:01): 72.2 |
| ITEIALDRY (listed as Human cytomegalovirus) [SEQ ID NO: 54] | CD8 | Positive | 14.3% | 58.3% | 14/24 | Intracellular staining ([1]; Tested HLA A*01:01): CD8; Tetramer staining ([2]; Tested HLA A*01:01): positive; ELISpot response rate (ex vivo) ([3]; Tested HLA A*01:01): 14.3; ELISpot response rate (12 d stim.) ([4]; Tested HLA A*01:01): 58.3 |
| RTDPATLTAY (listed as Human cytomegalovirus) [SEQ ID NO: 53] | CD8 | Positive | 66.7% | 82.6% | 19/23 | Intracellular staining ([1]; Tested HLA A*01:01): CD8; Tetramer staining ([2]; Tested HLA A*01:01): positive; ELISpot response rate (ex vivo) ([3]; Tested HLA A*01:01): 66.7; ELISpot response rate (12 d stim.) ([4]; Tested HLA A*01:01): 82.6 |
| SPSRDRFVQL (listed as Human cytomegalovirus) [SEQ ID NO: 27] | Nega- | Positive | 33.3% | 66.7% | 14/21 | Tetramer staining ([2]; Tested HLA B*07:02): positive; ELISpot response rate (ex vivo) ([3]; Tested HLA B*07:02): 33.3; ELISpot response rate (12 d stim.) ([4]; Tested HLA B*07:02): 66.7 |
| RSALGPFVGK (listed as Human cytomegalovirus) [SEQ ID NO: 69] | CD8 | Positive | – | 40.0% | 6/15 | – |
| LPYPRGYTL (listed as Human cytomegalovirus) [SEQ ID NO: 99] | CD8 | positive | 16.7% and 33.3% | 68.8% and 62.5% | 11/16 and 10/16 | Intracellular staining ([1]; Tested HLA B*08:01): CD8; Intracellular staining ([1]; Tested HLA B*51:01): CD8; HLA restriction demonstrated by tetramer stainings [2]: B*08 and B*51 restriction; Tetramer staining ([2]; Tested HLA B*08:01): positive; Tetramer staining ([2]; Tested HLA B*51:01): positive; ELISpot response rate (ex vivo) ([3]; Tested HLA B*08:01): 16.7; ELISpot response rate (ex vivo) ([3]; Tested HLA B*51:01): 33.3; Response in mismatch ELISpots ([4]; B*08-/B*51− PBMC samples): showed responses; ELISpot response rate (12 d stim.) ([4]; Tested HLA B*08:01): 68.8; ELISpot response rate (12 d stim.) ([4]; Tested HLA B*51:01): 62.5; Binding to more than one HLA-I allotype [4]: potentially able to bind to more than one HLA-I allotype |
| ALWDVALLEV (listed as Human cytomegalovirus) [SEQ ID NO: 2] | CD8 | Positive | 25.0% | 71.4% | 10/14 | Intracellular staining ([1]; Tested HLA A*02:01): CD8; Tetramer staining ([2]; Tested HLA A*02:01): positive; ELISpot response rate (ex vivo) ([3]; Tested HLA A*02:01): 25.0; ELISpot response rate (12 d stim.) ([4]; Tested HLA A*02:01): 71.4 |
| RLQPNVPLV (listed as Human cytomegalovirus) [SEQ ID NO: 7] | – | – | 0.0% | 33.3% | 6/18 | – |
| SLFYRAVAL (listed as Human cytomegalovirus) [SEQ ID NO: 98] | – | – | 12.5% | – | 5/13 and 4/22 | Binding to more than one HLA-I allotype [4]: potentially able to bind to more than one HLA-I allotype |
| LENGVTHRF (listed as Human cytomegalovirus) [SEQ ID NO: 49] | – | – | – | 7.1% | 1/14 | – |
| EEQDYRALL (listed as Human cytomegalovirus) [SEQ ID NO: 44] | – | – | – | 33.3% | 4/12 | – |
| LPNDHHYAL (listed as Human cytomegalovirus) [SEQ ID NO: 38] | – | – | – | 5.9% | 1/17 | – |
| RTFAGTLSR (listed as Human cytomegalovirus) [SEQ ID NO: 76] | – | – | – | 21.4% | 3/14 | – |
| RLFDLPVYC (listed as Human cytomegalovirus) [SEQ ID NO: 6] | – | – | – | 41.7% | 5/12 | – |
